Source: PubChem BioAssay AID1902 (Broad Institute, 2009)
Values joined by “and” are separate entries in the source; they are usually repeats but may differ in a detail not shown here. Equal entries are not always repeated. Active and inactive are the calls of the source.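 Rule for the calls: active = EC50 no more than a set limit of log units above the highest dose; inactive = the rest.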

Target: S. pyogenes SKKanGAS, kanamycin survival, BacTiterGlo, 6 h
Test: SKKanGAS survival reduction under kanamycin, dose response, streptokinase promoter inhibitor project, SKKanGAS strain, luminescence, dose confirmation (AID 1902);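 note: lower survival reflects blocked streptokinase promoter driving kanamycin resistance gene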

Row | SMILES | EC50
1 | O=C(N/N=C/c1cc(Br)ccc1O)c1ccncc1 | 1.15 µM
2 | CC(C)=CCc1c(O)cc2oc3c(CC=C(C)C)c(O)c(O)c(CC=C(C)C)c3c(=O)c2c1O | 0.828 µM
3 | Cc1ccc(CN2CN(S(=O)(=O)c3cccs3)c3nc4ccccc4nc32)cc1 | 7.74 µM
4 | CCCCNc1c2c3c(cccc3n(C)c1=O)C(=O)c1ccccc1-2 | 6.26 µM
5 | CCC1(C)Cc2c(sc3nc(SC)[nH]c(=S)c23)CO1 (configuration not stated) | 1.87 µM
6 | CCOC(=O)c1c(-c2ccc(C)cc2)csc1NC(=O)CCN1CCOCC1 | > 15 µM (inactive)
7 | N=C1S/C(=C\c2cn[nH]c2-c2ccc(F)cc2)C(=O)N1c1ccccc1F | 3.65 µM
8 | CC(C)(C)OC(=O)[C@H](Cc1ccccc1)NC(=O)c1[nH]cnc1C(=O)Nc1ccc(Cl)cc1 | 3.52 µM
9 | CC(Oc1ccccc1)C(=O)NC1C(=O)N2C1SC(C)(C)C2C(=O)O (configuration not stated) | 0.114 µM
10 | Cc1cccc2sc(NNC(=O)c3cc(-c4cccs4)nc4ccccc34)nc12 | 1.05 µM
11 | Cc1oc2cc(Br)c(O)c(Br)c2c1-c1ccccc1 | 3.28 µM
12 | O=C(O)c1ccccc1N/N=C/c1cc(Br)cc(Br)c1O | 7.96 µM
13 | Cc1c(Cc2ccccc2)c(=O)oc2cc(OCc3ccc(C(=O)O)cc3)ccc12 | 5.9 µM
14 | Cc1ccc(Cl)cc1N1CCN(C(=O)c2cn(C)c(=O)c3c2c2ccccc2n3C)CC1 | 4.92 µM
15 | CC(=O)Oc1ccc(/C=N/NS(=O)(=O)c2ccccc2)cc1 | > 15 µM (inactive)
16 | O=C(NC12CC3CC(CC(C3)C1)C2)c1ccc(-c2ccc(Br)cc2)o1 | 11 µM
17 | CCCCSc1ccc2nc(-c3ccc(C#N)cc3)cn2c1 | 7.72 µM
18 | COc1ccc(C(=O)NC2CCCCCC2)cc1S(=O)(=O)N1CCOCC1 | > 15 µM (inactive)
19 | CCS(=O)(=O)c1nc(S(=O)(=O)c2ccc(C)cc2)c(NCCN2CCOCC2)s1 | > 15 µM (inactive)
20 | CC12CC3(C)CC(C)(C1)CC(C(=O)NC1=NCCS1)(C2)C3 | 0.992 µM
21 | COc1ccc(C(Nc2cc(C)ccn2)c2ccc3ccc(C)nc3c2O)cc1 (configuration not stated) | 12.5 µM
22 | Cc1cc(N/N=C/c2ccc(O)c(C)c2O)nc(-c2ccccc2O)n1 | 3.09 µM
23 | Cc1nn(Cc2ccccc2Cl)c2sc(C(=O)Nc3ccccc3N3CCOCC3)cc12 | 2.92 µM
24 | O=C(CSc1nc2ccccc2c(=O)n1NC(=O)c1ccccc1)c1ccc(Cl)cc1 | 11.3 µM
25 | CCOC(=O)c1sc2nc3c(SCC(=O)O)cc(C(=O)c4cc(F)ccc4O)cn3c(=O)c2c1C | 2.11 µM
26 | CN1C(=O)/C(=C/c2ccccc2F)Sc2ccc(C(=O)NCC3CCCO3)cc21 (configuration not stated) | 1.53 µM

Row | SMILES | EC50
27 | CCOC(=O)c1cc(-c2ccc3c(c2)OCCO3)nc2c1c(C)nn2CCC#N | 3.42 µM
28 | CCCCCCC(=O)N/N=C/c1c(O)n(C(C)CC)c(=S)[nH]c1=O (configuration not stated) | 3.22 µM
29 | Cc1cccc(OCC(=O)NCC(=O)N/N=C/c2cc(Br)cc(Br)c2O)c1 | 0.723 µM
30 | O=C(/C=C/c1ccccc1Cl)c1ccccc(=O)c1O | 0.824 µM
31 | Cn1c2ccccc2c(=O)c2cc(C#Cc3ccc(N)cc3)ccc21 | 1.35 µM
32 | CCCc1cc(C(=O)Nc2ccc(C(=O)c3ccc(F)cc3)cc2)n(C)n1 | > 15 µM (inactive)
33 | CC(C)(C)OC(=O)NCCCC[C@H](NC(=O)c1[nH]cnc1C(=O)Nc1ccc(Cl)cc1)C(=O)OC(C)(C)C | 2.19 µM
34 | Cc1ccc(-n2c(O)c(C=Nc3ccccc3-c3n[nH]c(=S)[nH]c3=O)c3ccccc3c2=O)cc1C | 0.915 µM
35 | COCCn1c(-c2cc(OC)c(OC)c(OC)c2)nc2oc3cc(OC)ccc3c(=O)c2c1=O | > 15 µM (inactive)
36 | c1ccc(-c2noc(-c3ccccc3-c3ccccc3)n2)cc1 | 3.7 µM
37 | Cc1cccc(CC(Cc2nc3ccccc3[nH]2)c2nc3ccccc3[nH]2)c1 (configuration not stated) | 9.88 µM
38 | CC1CCN(c2nc(-c3ccccc3)cc(C(F)(F)F)n2)CC1 | 4.58 µM
39 | O=C(O)CCCN1C(=O)/C(=C/c2cn(-c3ccccc3)nc2-c2cccs2)SC1=S | 2.72 µM
40 | CCCCCCCCCCn1c2c(c(=N)c3c1CCC3)CCC2 | 9.26 µM
41 | O=c1cc2c(nn1Cc1ccc(Cl)cc1Cl)-c1ccccc1CC2 | 5.37 µM
42 | Cc1cc(=O)oc2c3c(cc(OCC(=O)NC4CC4)c12)OC(C)(C)CC3 | > 15 µM (inactive)
43 | Nc1cc(-c2ccc(OC(F)(F)F)cc2)nn1-c1ccc(Cl)c(Cl)c1 | 6.17 µM
44 | C/C(=N\NC(=S)NCc1ccccc1)c1cccc(Br)c1 | 5.44 µM
45 | Cc1c2ccncc2c(C)c2c1[nH]c1ccccc12 | 3.02 µM
46 | CCSc1nnc(NC(=O)c2ccccn2)s1 | 4 µM
47 | COc1cccc(N=Nc2c(N)[nH]n3c(=O)cc(-c4ccccc4)nc23)c1 | 1.79 µM
48 | S=c1nc2ccccc2c2nc(-c3ccccc3)[nH]n12 | 5.36 µM
49 | O=C(NCc1ccc(C(F)(F)F)cc1)c1ccc2c(c1)S(=O)(=O)c1ccccc1C2=O | > 15 µM (inactive)
50 | Cc1cccc(C(=O)NNC(=O)c2c(O)c3ccccc3n(C)c2=O)c1 | 6.96 µM
51 | CN1CC(c2ccc(Cl)c(Cl)c2)[C@@]2(COc3ccccc3C2=O)[C@@]12C(=O)Nc1ccccc12 (some centres not stated) | 1.43 µM
52 | Oc1c(Cl)cc(Cl)cc1C=Nc1cc(C(F)(F)F)ccc1N1CCc2ccccc2C1 | 3 µM

Row | SMILES | EC50
53 | O=C(Oc1c(Cl)cc(Cl)c2cccnc12)c1cccs1 | 1.08 µM
54 | c1ccc(Oc2nc(-c3ccccn3)nc3ccccc23)cc1 | 9.41 µM
55 | O=C(NNc1ccccc1Cl)C(O)(c1cccc(C(F)(F)F)c1)c1cccc(C(F)(F)F)c1 | 2.61 µM
56 | Cc1ccc(O)c(C(=O)CC(=O)c2ccc(C(C)(C)C)cc2)c1 | 2.6 µM
57 | C=C1CCC2C(C)(C)[C@@H](O)CC[C@@]2(C)[C@@H]1COc1ccc2ccc(=O)oc2c1 (some centres not stated) | 11.6 µM
58 | COc1ccc(NC(=O)c2nc[nH]c2C(=O)N[C@@H](CC(C)C)C(=O)OC(C)(C)C)cc1 | 3.28 µM
59 | CC[C@H]1OC(=O)C[C@@H](O)[C@H](C)[C@@H](O[C@@H]2O[C@H](C)C[C@H](N(C)C)[C@H]2O)[C@@H](CC=O)C[C@@H](C)C(=O)C=C[C@]2(C)O[C@H]2[C@@H]1C | < 0.06 µM
60 | Cc1[nH]n(-c2ccccc2)c(=O)c1/C=N/NC(=O)c1cccc(F)c1 | 3.44 µM
61 | COc1ccc(C(C)=O)cc1COc1cc(C)c(Cl)c(C)c1 | > 15 µM (inactive)
62 | CN(C)[C@@H]1C(=O)C(C(N)=O)=C(O)[C@@]2(O)C(=O)C3=C(O)c4c(O)cccc4[C@@](C)(O)C3[C@H](O)C12 (some centres not stated) | 0.095 µM
63 | CC(=O)NC(=S)Nc1ccc(NC(=S)NC(=O)/C=C/c2ccco2)cc1 | 8.72 µM
64 | Cc1nn(C(C)C(=O)NC2C(=O)N3C(C(=O)O)=C(CSc4nnnn4C)CSC23)cc1Cl (configuration not stated) | < 0.06 µM
65 | FC(F)Sc1ccc(NC(=S)NC(c2ccccc2)c2ccccc2)cc1 | 2.28 µM
66 | Cc1nn2c(NCc3ccccn3)cc(C(C)(C)C)nc2c1-c1ccccc1 | 1.54 µM
67 | Cc1cc(C)n(-c2nc(Nc3ccccc3C(F)(F)F)nc(-n3nc(C)cc3C)n2)n1 | 2.67 µM
68 | c1ccc2c(c1)nc(Nc1ccc(N3CCCCC3)cc1)c1nncn12 | 6.03 µM
69 | CCc1ccc(OCC(=O)NC(NC(=S)Nc2ccc(C)cc2C)C(Cl)(Cl)Cl)cc1 (configuration not stated) | 4.44 µM
70 | O=C(N/N=C/c1cc2c3c(c1O)CCCN3CCC2)c1ccccc1O | 7.14 µM
71 | O=C(N/N=C/c1ccc([N+](=O)[O-])o1)c1ccc(NS(=O)(=O)c2cccs2)cc1 | 3.55 µM
72 | O=C(Nc1ccc(Oc2ccc(Cl)cc2)c(Cl)c1)c1cc(I)cc(I)c1O | < 0.06 µM
73 | Cc1ccc(C)c2sc(N3CCN(C(=O)c4ccc([N+](=O)[O-])o4)CC3)nc12 | 5.58 µM
74 | Cc1nc2c(-c3ccccc3)c(C)[nH]n2c(=O)c1Cc1ccccc1 | 6.27 µM
75 | COc1cc(C)ccc1NC(=O)Cc1csc(NC(=O)Nc2ccccc2OC)n1 | 15.7 µM
76 | COc1ccc(C(NC(C)=O)c2cc(Cl)c3cccnc3c2O)cc1OC (configuration not stated) | 5.2 µM
77 | O=C(NCCS(=O)(=O)N1CCN(c2ccccc2F)CC1)C1CC(=O)N(c2ccc(F)cc2)C1 (configuration not stated) | > 15 µM (inactive)
78 | Cc1cnn(-c2nc(-c3ccccc3)cc(-c3ccccc3)n2)c1 | 4.51 µM

Row | SMILES | EC50
79 | NC(=O)c1ccc(NC(=O)COC(=O)c2c3c(nc4ccccc24)/C(=C\c2ccc4c(c2)OCO4)CCC3)cc1 | 5.31 µM
80 | O=C(CCCSc1ccccc1)Nc1nc(-c2ccccn2)cs1 | 6.17 µM
81 | CO[C@H]1C=CO[C@@]2(C)Oc3c(C)c(O)c4c(O)c(c(C=NN5CCN(C)CC5)c(O)c4c3C2=O)NC(=O)C(C)=CC=C[C@H](C)[C@H](O)[C@@H](C)[C@@H](O)[C@@H](C)[C@H](OC(C)=O)[C@@H]1C | < 0.06 µM
82 | CC(C)Sc1cc(N2CCCC2)nc(-c2ccccc2)n1 | 11.2 µM
83 | O=C(NC(NC(=S)Nc1ccc(Cl)cc1Cl)C(Cl)(Cl)Cl)c1cccc([N+](=O)[O-])c1 (configuration not stated) | 0.99 µM
84 | CCn1cc(CN2CCC(n3nccc3NC(=O)Cc3ccccc3)CC2)cn1 | > 15 µM (inactive)
85 | Oc1c(CN2CCCCC2)cc(Br)c2cccnc12 | 1.12 µM
86 | CC1CCN(Cc2c(C(=O)N/N=C/c3cc(Br)ccc3O)nnn2-c2nonc2N)CC1 | 10.2 µM
87 | Cc1cc(C)nc(-n2nc(C)c(Sc3ccc(F)cc3)c2N)n1 | > 15 µM (inactive)
88 | C=CCn1c(O)c(C(C)=Nc2ccc(N(CC)CC)cc2)c(=O)[nH]c1=O | 5.73 µM
89 | Cc1ccc(C(O)(C(=O)NNc2ccc3ccccc3n2)c2ccc(C)cc2)cc1 | 2.04 µM and 2.98 µM
90 | Fc1ccc2nc(Nc3nc4cc5c(cc4s3)OCO5)sc2c1 | 2.63 µM
91 | CCOC(=O)c1cc(-c2ccc(OC(F)F)cc2)nc2c1c(=O)[nH]c(=O)n2C | 0.392 µM
92 | CNC[C@@H](CC1CCCCC1)NC[C@H](CC(C)C)NCCc1cccc(C(F)(F)F)c1 | 5.4 µM
93 | CC1=NN(C(N)=S)C(=O)C1N=Nc1c(C)cc(C)cc1C (configuration not stated) | 5.77 µM
94 | Cc1sc2ncnc(N/N=C/c3ccccc3O)c2c1C | 4.09 µM
95 | COc1ccc(/C=C/c2ccc3cccc(O)c3n2)c(OC)c1OC | 3.27 µM
96 | CC(C)C1C(c2ccccc2)N(C)C(c2ccccc2)CC1(O)c1ccccc1 (configuration not stated) | 2.48 µM
97 | O=C(CCc1ccccc1)NNC(=S)NC(=O)c1ccccc1 | 1.81 µM
98 | Cn1c(N)c(C(=O)COC(=O)CCc2c[nH]c3ccccc23)c(=O)n(C)c1=O | 9.68 µM
99 | Cc1ccc2[nH]c(O)c(N=NC(=O)c3ccc(NS(=O)(=O)c4cccs4)cc3)c2c1 | 1.25 µM
100 | COc1cc2oc3ccc(C#Cc4ccc(N)cc4)cc3c(=O)c2cc1OC | 0.799 µM
101 | Cc1nn(-c2ccc(Cl)cc2)c(Cl)c1/C=N/NC(=O)c1ccc(NS(=O)(=O)c2cccs2)cc1 | 2.06 µM
102 | CC(/C=C1\SC(=S)N(CCCC(=O)Nc2ccc(C(=O)O)cc2)C1=O)=C\c1ccccc1 | 0.19 µM
